Measurements reported in patent publication US20050049206A1, “Compositions of flavonoids and flavonoid-containing extracts and the treatment of diseases” (priority 2003, published 2005).
“Also recorded” adds a separate entry of the source. Read-outs that look alike come from different tables or passages of the source.

How the values were obtained:
[1] = test system: pulmonary fibrosis in bleomycin-induced rats; assay: Histopathological / morphologic examination of lungs in bleomycin-induced pulmonary fibrosis rats; format: in vivo, Sprague-Dawley rats; conditions: for Alveolitis Score 0 (number of rats) / Alveolitis Score I (number of rats) / Alveolitis Score II (number of rats) / Alveolitis Score III (number of rats) / Pulmonary Fibrosis Score 0 (number of rats) / Pulmonary Fibrosis Score I (number of rats) / Pulmonary Fibrosis Score II (number of rats) / Pulmonary Fibrosis Score III (number of rats): BL-instilled rats, day 28, n=10; for pulmonary anti-fibrotic activity: animal experiments (rats)
Acute toxicity (LD50) = conditions: in vivo
[2] = test system: pulmonary fibrosis in bleomycin-induced rats; assay: Assays of bronchoalveolar lavage fluid in bleomycin-induced pulmonary fibrosis rats; format: in vivo, Sprague-Dawley rats; conditions: BL-instilled rats, day 28, n=10
[3] = test system: CCl4-induced liver cirrhosis in rats; assay: Hepatic cirrhosis in CCl4-induced rats; format: in vivo, Sprague-Dawley rats; conditions: for ALT decrease / AST decrease: serum, 450 mg/kg by gavage for 3 weeks after 8 weeks CCl4, P<0.001 (FIG. 10)
Text: Animals and method of baicalin dosing: Fibrosis was induced by chronic CCl4 administration to rats. Sprague-Dawley rats weighing 200-240 g received three doses a week i.p. of a mixture 1:6 of CCl4-mineral oil for the first week; then the second week the ratio was 1:5, the third week 1:4, and the 4th-8th weeks the ratio was 1:3 [Armendariz Biochim Biophys Acta 1997;1353:241-252, Armendariz Hepatology 1991;14:895-900.]. CCl4 intoxication was stopped and cirrhotic animals were then fed by gavage either with the baicalin (n=10) at the dosage of 450 mg/kg or saline (n=10) as a control for 3 more weeks.
Statistical analysis: Results relative to the number of experiments indicated, are expressed as mean ±SD. Statistical analyses were perfomed using Student's t-test.
Preparation of liver homogenates: Rats were killed at indicated times and liver homogenates were prepared from 150 mg of tissue as described [Gao Hum Gene Ther 1999;10:911-922.] and kept at −70° C. At the same time, serum samples were obtained and kept at −20° C. until used. Total protein levels in serum were determined using Bradford assay of protein quantification [Bradford Anal Biochem 1976;72:248-254.].
Biochemical assays: Blood was drawn from control and experimental cirrhotic animals at the moment of sacrifice and serum transaminases alanine aminotransferase (ALT), aspartate aminotransferase (AST) and alkaline phosphatase (ALP) were determined in an automated Sincron-7 machine.
Hydroxyproline content biochemical determinations: Liver samples were obtained at the moment of sacrifice and 150 mg were subjected to acid hydrolysis to determine the amount of hydroxyproline according to Rojkind and coworkers [Rojkind Anal Biochem 1974; 57:1-7].

[4] = baicalein by gavage once a day (350 or 450 mg/kg/day)
[5] = baicalin 450 mg/kg/day by gavage

O=c1cc(-c2ccccc2)oc2cc(O)c(O)c(O)c12 [Baicalein, 5,6,7-Trihydroxy-2-phenyl-4H-chromen-4-one]
Alveolitis Score 0 (number of rats) ([1]; baicalein by gavage once a day): 0 | Alveolitis Score I (number of rats) ([1]; baicalein by gavage once a day): 8 | Alveolitis Score II (number of rats) ([1]; baicalein by gavage once a day): 2 | Alveolitis Score III (number of rats) ([1]; baicalein by gavage once a day): 0 | Pulmonary Fibrosis Score 0 (number of rats) ([1]; baicalein by gavage once a day): 0 | Pulmonary Fibrosis Score I (number of rats) ([1]; baicalein by gavage once a day): 7 | Pulmonary Fibrosis Score II (number of rats) ([1]; baicalein by gavage once a day): 3 | Pulmonary Fibrosis Score III (number of rats) ([1]; baicalein by gavage once a day): 0 | pulmonary anti-fibrotic activity [1]: dramatic and novel pulmonary anti-fibrotic activity | extracellular fibers and mononuclear cell alveolitis of lungs compared with the BL group ([1]; baicalein by gavage, BL-rat model): considerably less extracellular fibers and mononuclear cell alveolitis | fibrotic score (lung) ([1]; oral baicalein, BL-induced rats): dramatic effect | LD50 (Acute toxicity (LD50)): 11000 mg/kg | acute toxicity (Acute toxicity (LD50)): about 11 g/kg body weight | LD50 (Acute toxicity (LD50); read-out: LD50): 14000 mg/kg | LDH [2, 4]: 1389.61 ± 526.34 U/L | Mononuclear cells [2, 4]: 501.0 ± 310.2 ×10^4/ml | Protein [2, 4]: 1.95 ± 0.35 g/L

O=C(O)[C@H]1O[C@@H](Oc2cc3oc(-c4ccccc4)cc(=O)c3c(O)c2O)[C@H](O)[C@@H](O)[C@@H]1O [Baicalin, (2S,3S,4S,5R,6S)-6-(5,6-dihydroxy-4-oxo-2-phenyl-4H-chromen-7-yloxy)-tetrahydro-3,4,5-trihydroxy-2H-pyran-2-carboxylic acid]
macroscopic view of cirrhotic livers, treated vs non-treated ([3]; 450 mg/kg baicalin, n=10, P<0.001 (FIG. 8)): remarkable differences in the entire granular texture of the liver | hydroxyproline level of liver (relative collagen content per g of liver) vs non-treated ([3]; baicalin 450 mg/kg by gavage for 3 weeks after 8 weeks CCl4, P<0.05 (FIG. 9)): significantly lower | liver fibrosis reduction as compared with saline controls ([3]; baicalin 450 mg/kg daily by gavage for 3 weeks after 8 weeks CCl4, n=10): 40% | fibrotic index (liver) ([3]; oral baicalin 450 mg/kg, CCl4 rats (FIG. 8)): dramatic effect | ALT decrease [3]: over 2 fold | AST decrease [3]: over 3 fold | Alveolitis Score 0 (number of rats) [1, 5]: 0 | Alveolitis Score I (number of rats) [1, 5]: 7 | Alveolitis Score II (number of rats) [1, 5]: 3 | Alveolitis Score III (number of rats) [1, 5]: 0 | Pulmonary Fibrosis Score 0 (number of rats) [1, 5]: 0 | Pulmonary Fibrosis Score I (number of rats) [1, 5]: 6 | Pulmonary Fibrosis Score II (number of rats) [1, 5]: 4 | Pulmonary Fibrosis Score III (number of rats) [1, 5]: 0 | pulmonary anti-fibrotic activity [1]: dramatic and novel pulmonary anti-fibrotic activity | lung lesions (morphology) compared with the BL group ([1]; baicalin-treated BL-induced rats, day 28, HE staining): of a more mild nature than that of the BL group; also recorded: considerably less extracellular fibers and mononuclear cell alveolitis; also recorded: of a more mild nature than those of the BL group | fibrotic index (lung) ([1]; oral baicalin, BL-induced rats): dramatic effect | acute toxicity (Acute toxicity (LD50)): ~14 g/kg body weight | LD50 (Acute toxicity (LD50); read-out: LD50): 11000 mg/kg | LDH [2, 5]: 1331.61 ± 516.68 U/L | Mononuclear cells [2, 5]: 465.0 ± 320.2 ×10^4/ml | Protein [2, 5]: 1.85 ± 0.52 g/L

Cc1ccc(=O)n(-c2ccccc2)c1 [Pirfenidone, reference compound]
ALT decrease [3]: over 2 fold | AST decrease [3]: over 3 fold
